Tested on: NT2/D1-R1 control and DNMT3B knockdown cells
Assay: Genome-wide expression analysis with PAM clusters, control and DNMT3B knockdown cells (Tables 8-14)
Details: sh-Ctrl + aza, NT2/D1-R1, decitabine 10 nM 3 days

Nc1ncn([C@H]2C[C@H](O)[C@@H](CO)O2)c(=O)n1 [aza]
ACSS2 (NM_0010765) gene expression, Mean: 354.703
ADCK1 (NM_020421) gene expression, Mean: 203.584
ADCY1 (NM_021116) gene expression, Mean: 106.028
AGAP1 (NM_014914) gene expression, Mean: 188.156
AK056312 gene expression, Mean: 293.846
ANKRD9 (NM_152326) gene expression, Mean: 614.423
APEH (NM_001640) gene expression, Mean: 720.135
APP (NM_201414) gene expression, Mean: 326.901
C1orf115 (NM_024709) gene expression, Mean: 213.203
C2orf34 (NM_024766) gene expression, Mean: 205.5
C7orf47 (NM_145030) gene expression, Mean: 466.635
C16orf35 (NM_0010394) gene expression, Mean: 630.186
CA4 (NM_000717) gene expression, Mean: 1449.98
CACNA2D2 (NM_006030) gene expression, Mean: 304.761
CD24 (NM_013230) gene expression, Mean: 1797.88
CD248 (NM_020404) gene expression, Mean: 178.853
CDC42EP5 (NM_145057) gene expression, Mean: 219.473
CDH3 (NM_001793) gene expression, Mean: 651.295
CEBPB (NM_005194) gene expression, Mean: 1388.19
CHST13 (NM_152889) gene expression, Mean: 151.937
CLASP1 (NM_015282) gene expression, Mean: 301.334
CLIP2 (NM_032421) gene expression, Mean: 175.136
COMMD1 (NM_152516) gene expression, Mean: 235.362
COMMD7 (NM_0010993) gene expression, Mean: 915.427
CRMP1 (NM_0010148) gene expression, Mean: 328.665
CTNNBIP1 (NM_020248) gene expression, Mean: 144.946
CXCL16 (NM_022059) gene expression, Mean: 279.669
CYP2F1 (NM_000774) gene expression, Mean: 126.222
CYP2S1 (NM_030622) gene expression, Mean: 604.679
DBC1 (NM_014618) gene expression, Mean: 197.271
DDIT4 (NM_019058) gene expression, Mean: 522.11
DGKQ (NM_001347) gene expression, Mean: 247.199
DLL3 (NM_016941) gene expression, Mean: 120.925
DPYSL3 (NM_001387) gene expression, Mean: 602.964
DYM (NM_017653) gene expression, Mean: 217.362
DYSF (NM_003494) gene expression, Mean: 188.291
EEF2K (NM_013302) gene expression, Mean: 243.652
EPHA1 (NM_005232) gene expression, Mean: 497.427
EVI5L (NM_145245) gene expression, Mean: 247.813
EVL (NM_016337) gene expression, Mean: 537.424
EXTL3 (NM_001440) gene expression, Mean: 695.163
F11R (NM_016946) gene expression, Mean: 182.523
FAF1 (NM_007051) gene expression, Mean: 209.978
FAM125A (NM_138401) gene expression, Mean: 564.523
FAM127A (NM_0010781) gene expression, Mean: 867.222
FCGBP (NM_003890) gene expression, Mean: 247.577
FDFT1 (NM_004462) gene expression, Mean: 417.59
FIGNL2 (NM_0010136) gene expression, Mean: 231.29
FLNB (NM_001457) gene expression, Mean: 679.266
FOXN3 (NM_005197) gene expression, Mean: 274.017
GAL (NM_015973) gene expression, Mean: 1375.17
GAS7 (NM_201433) gene expression, Mean: 225.598
GLG1 (NM_012201) gene expression, Mean: 958.607
GRAMD1A (NM_020895) gene expression, Mean: 767.701
GTF3C1 (NM_001520) gene expression, Mean: 387.976
HCFC1R1 (NM_0010020) gene expression, Mean: 427.673
HESX1 (NM_003865) gene expression, Mean: 204.885
HINT2 (NM_032593) gene expression, Mean: 537.794
HIST3H2A (NM_033445) gene expression, Mean: 314.077
HIST4H4 (NM_003541) gene expression, Mean: 218.72
HK1 (NM_033500) gene expression, Mean: 3617.1
IDH1 (NM_005896) gene expression, Mean: 668.525
IL21R (NM_181078) gene expression, Mean: 154.278
JPH3 (NM_020655) gene expression, Mean: 167.797
KIF1A (NM_004321) gene expression, Mean: 160.071
KIF1B (NM_015074) gene expression, Mean: 252.94
LDB2 (NM_001290) gene expression, Mean: 202.228
LDOC1 (NM_012317) gene expression, Mean: 502.418
LHFPL4 (NM_198560) gene expression, Mean: 215.926
LONP1 (NM_004793) gene expression, Mean: 779.763
LPCAT3 (NM_005768) gene expression, Mean: 477.318
LRBA (NM_006726) gene expression, Mean: 170.16
LRRC33 (NM_198565) gene expression, Mean: 145.858
MAPK3 (NM_0010400) gene expression, Mean: 277.581
MAPKAP1 (NM_0010066) gene expression, Mean: 182.648
MED30 (NM_080651) gene expression, Mean: 647.26
MID1IP1 (NM_021242) gene expression, Mean: 649.056
MKRN1 (NM_013446) gene expression, Mean: 2856.3
MSRB2 (NM_012228) gene expression, Mean: 934.409
MYO5C (NM_018728) gene expression, Mean: 151.991
NANOG (NM_024865) gene expression, Mean: 706.99
NCOR2 (NM_006312) gene expression, Mean: 493.089
NDUFS4 (NM_002495) gene expression, Mean: 337.053
NFE2L3 (NM_004289) gene expression, Mean: 222.942
NGFRAP1 (NM_206917) gene expression, Mean: 1121.05
NKX3-2 (NM_001189) gene expression, Mean: 409.938
NM_014745 gene expression, Mean: 379.916
NPAS1 (NM_002517) gene expression, Mean: 201.893
NPTX2 (NM_002523) gene expression, Mean: 367.499
ODZ3 (NM_0010804) gene expression, Mean: 189.247
P4HB (NM_000918) gene expression, Mean: 1383.99
PACSIN1 (NM_020804) gene expression, Mean: 216.839
PCDH19 (NM_020766) gene expression, Mean: 151.727
PCK2 (NM_0010180) gene expression, Mean: 116.02
PDZD4 (NM_032512) gene expression, Mean: 182.348
PEMT (NM_148172) gene expression, Mean: 595.006
PEX14 (NM_004565) gene expression, Mean: 250.351
PGM1 (NM_002633) gene expression, Mean: 1814.18
PHC1 (NM_004426) gene expression, Mean: 951.052
PIM2 (NM_006875) gene expression, Mean: 985.879
PITPNC1 (NM_181671) gene expression, Mean: 180.093
PNKP (NM_007254) gene expression, Mean: 424.886
PPAP2A (NM_176895) gene expression, Mean: 348.062
PPP1R1B (NM_181505) gene expression, Mean: 238.675
PQLC3 (NM_152391) gene expression, Mean: 198.571
PRSS8 (NM_002773) gene expression, Mean: 991.013
PSAT1 (NM_021154) gene expression, Mean: 1824.54
PTOV1 (NM_017432) gene expression, Mean: 720.62
PTPLA (NM_014241) gene expression, Mean: 227.16
RAB3IP (NM_175624) gene expression, Mean: 601.056
RALY (NM_007367) gene expression, Mean: 833.663
RASIP1 (NM_017805) gene expression, Mean: 185.874
RASL11B (NM_023940) gene expression, Mean: 432.564
RCN2 (NM_002902) gene expression, Mean: 501.026
REEP6 (NM_138393) gene expression, Mean: 405.813
RNF130 (NM_018434) gene expression, Mean: 174.702
ROD1 (NM_005156) gene expression, Mean: 637.491
RPS6KA2 (NM_0010069) gene expression, Mean: 141.693
SAT1 (NM_002970) gene expression, Mean: 1895.82
SCARB1 (NM_005505) gene expression, Mean: 433.694
SEMA4B (NM_198925) gene expression, Mean: 288.428
SEMA4D (NM_006378) gene expression, Mean: 315.221
SEMA6B (NM_032108) gene expression, Mean: 218.592
SH2B3 (NM_005475) gene expression, Mean: 424.579
SLC3A2 (NM_0010132) gene expression, Mean: 898.448
SLC8A2 (NM_015063) gene expression, Mean: 166.295
SLC16A10 (NM_018593) gene expression, Mean: 159.709
SLC22A23 (NM_021945) gene expression, Mean: 233.534
SND1 (NM_014390) gene expression, Mean: 423.122
SOX2 (NM_003106) gene expression, Mean: 271.23
SPRY1 (NM_005841) gene expression, Mean: 248.973
SPSB2 (NM_032641) gene expression, Mean: 474.363
SRPX (NM_006307) gene expression, Mean: 222.901
SURF6 (NM_006753) gene expression, Mean: 1293.98
TBCD (NM_005993) gene expression, Mean: 256.961
TCEA2 (NM_198723) gene expression, Mean: 483.559
TCF7L1 (NM_031283) gene expression, Mean: 144.548
TIMP4 (NM_003256) gene expression, Mean: 389.521
TMC6 (NM_007267) gene expression, Mean: 346.392
TMEM145 (NM_173633) gene expression, Mean: 166.627
TPST2 (NM_0010085) gene expression, Mean: 370.953
TRAPPC9 (NM_031466) gene expression, Mean: 104.733
TSPAN9 (NM_006675) gene expression, Mean: 1313.95
TUBB4 (NM_006087) gene expression, Mean: 253.587
UBE2E2 (NM_152653) gene expression, Mean: 347.293
UNC84B (NM_015374) gene expression, Mean: 465.92
VCX2 (NM_016378) gene expression, Mean: 415.874
VCX3A (NM_016379) gene expression, Mean: 1237.23
VCX3B (NM_0010018) gene expression, Mean: 1368.4
VSNL1 (NM_003385) gene expression, Mean: 249.848
WDR8 (NM_017818) gene expression, Mean: 619.054
XBP1 (NM_0010795) gene expression, Mean: 505.041
XM_373896 gene expression, Mean: 276.846
XM_926633 gene expression, Mean: 1782.67
XM_932919 gene expression, Mean: 283.159
XM_933796 gene expression, Mean: 270.602
XM_943677 gene expression, Mean: 245.788
ZBTB46 (NM_025224) gene expression, Mean: 207.588
ZSWIM4 (NM_023072) gene expression, Mean: 393.591
HIST1H2BK (NM_080593) gene expression, Mean (first HIST1H2BK entry (r906)): 1316.1
TRPC4AP (NM_015638) gene expression, Mean (first TRPC4AP entry (r880)): 633.52
HIST1H2BK (NM_080593) gene expression, Mean (second HIST1H2BK entry (r952)): 332.966
TRPC4AP (NM_015638) gene expression, Mean (second TRPC4AP entry (r892)): 1094.19

Reference: patent US9476099B2 (TRUSTEES OF DARTMOUTH COLLEGE, priority 2012, dated 2016)
